Reference: a melting point compilation (Tetko et al.; mined from patent text by program, amines drawn as free bases though some values may be those of a salt)

| SMILES | melting point [°C] |
| --- | --- |
| CC(O)CC1NC(=O)c2ccccc21 (stereo not given) | 100 to 102 |
| CCc1oc(CCOc2ccc(N)cc2)nc1-c1ccccc1 | 89 to 90 |
| Nc1ccc(-c2ncon2)cc1 | 97 to 100 |
| NC(=O)OCC(O)COc1cc(-c2cccc(Cl)c2)on1 (stereo not given) | 149 to 150 |
| OCCC(O)OCn1ccc2c(Cl)ncnc21 (stereo not given) | 114 |
| CCOC(=O)C(=CNNc1c(Cl)cc(C(F)(F)F)cc1Cl)C(=O)OCC | 86 |
| CCC1N=C(c2ccccc2Cl)c2cc(CCC(=O)OC)sc2NC1=S (stereo not given) | 173 to 176 |
| Cc1cc2n(c1)CN(CCCO)c1ccccc1-2 | 77 to 78 |
| CC(C)(C#N)C1(c2ccc(Cl)cc2)CCC1 | 73 to 75 |
| COc1cccc(CN(C)CC(CCN2CCC(NC(C)=O)(c3ccccc3)CC2)c2ccc(Cl)c(Cl)c2)c1 (stereo not given) | 59 to 61 |
| c1ccc(-c2ccc3sc(-c4nc(COc5ccc(CCCn6ccnc6)cc5)co4)cc3c2)cc1 | 168 to 169 |
| O=C(O)Cc1c(C(=O)O)c2cc(Oc3ccc(C(F)(F)F)cc3)ccc2n1-c1ccc(OC(F)(F)F)cc1 | 257 to 259 |
| CCCNC(=O)c1ccccc1 | 87.6 to 88.9 |
| Cc1ccc(NP(N)(N)=O)c([N+](=O)[O-])c1 | > 180 |
| CN1CCCCC1CNC(=O)Nc1cc(N2CC(c3ccccc3)CC2=O)ccn1 (stereo not given) | 144 to 146 |
| OC(c1ccccc1)(c1ccccc1)C1CCN(Cc2ccccc2)CC1 | 89.5 to 90.5 |
| COC(=O)CCc1cc2cc(Cl)ccc2n1S(=O)(=O)c1ccc2c(c1)OCO2 | 122 to 129 |
| COC(=O)Cc1ccc(OCCNC(=O)C2Cc3ccccc3N2S(=O)(=O)c2ccc(-c3cccc(C(F)(F)F)c3)c(C)c2)cc1 (stereo not given) | 60 |
| CN1CCN(c2cccc3c2ccn3S(=O)(=O)c2ccc(F)cc2)CC1 | 151 to 152 |
| O=C(O)c1ccccc1S(=O)(=O)c1cc(Cl)ccc1C(=O)O | 276 to 277 |
| Cc1cc2nnc(C)n2nc1-c1cccc(C(F)(F)F)c1 | 185 to 187 |
| Cc1cc(-n2ccnc2)c2cccc(OCc3c(Cl)ccc(S(=O)(=O)N4CCC[C@H]4C(=O)NCC4CCN(CCOCCO)CC4)c3Cl)c2n1 | 96 |
| COc1ccc(CNC(=O)c2cn3c(=O)n(Cc4ccccc4)c(=O)c(C)c3s2)cc1 | 160 to 162 |
| CC(=O)NCC1CN(c2ccc(N3CCN(c4nc(=O)n(-c5ccccc5)s4)CC3)c(F)c2)C(=O)O1 (stereo not given) | 245 to 247 |
| COc1c(CCc2ccc(F)cc2)cc(Cl)cc1C(N)=O | 85 |

| SMILES | melting point [°C] |
| --- | --- |
| O=C1C[C@]2(CCCC[C@H]2Cc2ccccc2)S(=O)(=O)CCN1Cc1cccnc1 | 220 to 221 |
| CCOC(=O)CCC1(C)Oc2ccc([N+](=O)[O-])cc2O1 (stereo not given) | 76 to 78 |
| CCP1(=O)c2ccccc2CN1c1ccccc1 (stereo not given) | 116 to 120 |
| Cc1ccc2nc(NC(=O)c3ccc(C(C)(C)C)cc3)cn2c1 | 259 to 260 |
| O=C(O)COc1ccc2c(-c3ccccc3F)csc2c1Cl | 163 to 164 |
| CS(=O)c1ccc(-c2oncc2CCCO)cc1 (stereo not given) | 73 to 74 |
| CNC(=O)c1ccc(-c2ccc3nnn(Cc4ccc5ncccc5c4)c3n2)cc1Cl | 227 to 230 |
| NC(=O)CCN1C(=O)C(=O)c2cc(F)ccc21 | 142 to 145 |
| CCCCCCCC(=O)N(CCc1ccc(CCO)cc1)S(=O)(=O)c1ccc(Cl)cc1 | 55 |
| CCOC(=O)C(C(=O)C(C)C)C1c2ccccc2C(=O)N1c1ccc2ccc(Cl)nc2n1 (stereo not given) | 146 |
| CC1(C)C=C(C#N)c2cc3nonc3cc2O1 | 136 to 138 |
| COCC1CCCN1S(=O)(=O)c1ccc2c(c1)C1(OCCCO1)C1=NCCCN12 (stereo not given) | 129 to 130 |
| CN(C)N=Nc1ccsc1C(N)=O | 168 to 170 |
| CCCCCCCCC1C(=O)NC(=O)N1CCCCCCC(=O)OCC (stereo not given) | 68 to 70 |
| CC(F)=C1CCC2C3CC=C4CC(O)CCC4(C)C3CCC12C (stereo not given) | 129 to 133 |
| CN(C(=O)C(C)(C)N1C(=O)c2ccccc2C1=O)C(c1ccc(F)cc1)c1ccc(F)cc1 | 169 to 171 |
| COC(=O)CCc1cc2cc(Cl)ccc2n1S(=O)(=O)c1ccc(Cl)cc1 | 89 to 92 |
| CCC(=O)c1onc2ccccc12 | 51 to 53 |
| COc1c(C)c(N2CCN(c3ccc4c(c3)OCCO4)CC2)c(C)c2c1OC(C)(C)C2 | 167 to 168 |
| COc1ccc(N2CCN(C3CN(C4c5c(C)cc(C)c(C)c5OC4(C)C)CCN3c3ccccc3)CC2)cc1 (stereo not given) | 144 to 145 |
| O=C(CCl)c1ccc2c(c1)Cc1cc(C(=O)CCl)ccc1S2 | 175 to 177 |
| CC(C)(OCc1nn(C(c2ccccc2)(c2ccccc2)c2ccccc2)c2ccccc12)C(=O)O | 179 to 180 |
| Cn1ccnc1S(=O)(=O)C(C)(Cc1ccc(-c2ccccc2)cc1)C(=O)NO (stereo not given) | 112 |
| Cc1cc(CNC(=O)CCl)c(O)c2c1CCC2=O | 166 to 168 |
| C[C@@H](O[Si](C)(C)C(C)(C)C)[C@@H]1C(=O)N[C@@H]1S(C)(=O)=O | 101 to 102 |

| SMILES | melting point [°C] |
| --- | --- |
| CC(C)CCC(=O)N[C@H]1CC[C@H](CCN2CCN(c3nccc4c3CCO4)CC2)CC1 | 182 |
| COc1ccc(OCc2ccccc2)c2c1OCCO2 | 70 |
| c1ccc(COc2ccc(C(c3ccc(OCc4ccccc4)cc3)n3cncn3)cc2)cc1 | 134 to 137 |
| O=[N+]([O-])c1cccc(OCc2ccc3ccccc3n2)c1 | 109 |
| CC(=O)N(CCCC(=NNC(N)=S)c1ccccc1)C(C)C | 141 to 147 |
| O=C(O)CSc1nc(=O)[nH]cc1F | 255 |
| CC(C)(C)C(O)C(CCCCOc1ccccc1)n1cncn1 (stereo not given) | 79 to 81 |
| CCCCc1nc2c(N)nc3cccnc3c2n1CCCC(C)=NOC | 132 to 134 |
| O=C(NC(Cc1ccncc1)C(=O)O)OCc1cc2cc(-c3cccnc3)ccc2o1 (stereo not given) | 257 |
| CCc1nc2nccc(-c3cccc(C(F)(F)F)c3)n2n1 | 132 to 134 |
| O=Cc1ccnc(OCC=CCNC(=O)CS(=O)Cc2ccco2)c1 (stereo not given) | 67.6 to 69.9 |
| O=C1Nc2ccc(I)cc2C1=NNC(=O)c1ccc(Oc2ccccc2)cc1 | 296 |
| CCOC(=O)c1c(C=O)c2ccc3sc4ccccc4c3c2n1C | 145 to 147 |
| COOC(=O)c1cc2c(Cl)cn(C)c2nc1C(=O)OOC | 129 to 137 |
| C=Cc1ccc(CC(=O)O)cc1 | 94 |
| Cn1c(C(F)(F)F)cc(=O)n(-c2cc(OC(=O)CCC(=O)OCCCl)c(Cl)cc2F)c1=O | 94 to 96 |
| CCn1c(SCc2ccccn2)nc2ccccc2c1=O | 110 to 111 |
| Nc1nc(-c2cc(Cl)ccc2Cl)nc(N2CCS(=O)(=O)CC2)n1 | > 275 |
| CCCCn1c(=O)n(CCC)c(=O)c2c3n(nc21)CCCN3 | 147 to 150 |
| COc1cc(CCCn2ccnc2)ccc1OCc1coc(-c2cccs2)n1 | 94 to 95 |
| COc1nc(C)c(C(C)=O)cc1NC(=O)N1CCN(c2cc(C)cc(C)c2)CC1 | 66 to 69 |
| Cc1ccc(C(=O)N2CCN(CC3(C)Cc4c(C)c(N)c(C)c(C)c4O3)CC2)cc1 (stereo not given) | 131 to 133 |
| Cn1c(=O)[nH]c(N)c(NCc2ccccc2)c1=O | 206 to 218 |
| O=C1NC(=O)c2ccc(-c3ccc(CN4CCCCC4)cc3)cc2C1=CNc1ccc(CN2CCCCC2)cc1 | 159 to 160 |
| COc1ccc2cc(CC(=O)O)ccc2c1 | 173 to 174 |

| SMILES | melting point [°C] |
| --- | --- |
| CCN(C(=O)c1cnc(N2CC(C)NC2=O)nc1N)c1cccc(C(F)(F)F)c1 (stereo not given) | 207 to 208 |
| COc1cc(-c2nc(-c3ccc(N(C)C)cc3)c(C)[nH]2)cc(OC)c1OP(=O)(O)O | 196 to 198 |
| OC1(c2ccc3c(c2)OCO3)CCN(CCc2ccccc2)CC1 | 123 to 125 |
| Cc1cc(NC(=O)NN(c2ccccc2)c2cccc(C#N)c2)ccc1N1CCCCC1=O | 161 to 162 |
| O=[N+]([O-])c1cccc2c(NCC34CCCN3CCC4)cccc12 | 95 to 97 |
| CCN1CCN(CCCC#Cc2cn(Cc3ncc(C)c(OC)c3C)c3nc(N)nc(Cl)c23)CC1 | 142 to 144 |
| COc1ccc(C(=O)CCCCCN2CCC(CNC(=O)c3cc(Cl)c(N)cc3OC)CC2)cc1OC | 102 to 105 |
| O=C(Cn1ccnc1)c1cccc2ccccc12 | 114 to 117 |
| CCOC(=O)C1=C(C)NN=C(CC)C1c1ccccc1C(F)(F)F (stereo not given) | 124 |
| CCOC(=O)Cc1ccc(NC(=O)C(COc2ccc(Cl)cc2)NS(=O)(=O)c2ccc(I)cc2)cc1 (racemic) | 162 to 163 |
| CN1CCC=C(c2nc(NC=O)sc2Cl)C1 | 193 |
| CC(C)Cn1c(CCCCNC(=O)N2CCOCC2)nc2c(N)nc3ccccc3c21 | 97 to 100 |
| COc1ccccc1CN[C@H]1CCCN(CC=Cc2ccccc2)[C@H]1c1ccccc1 (relative stereo) | 54 to 58 |
| CS(=O)(=O)c1ccc(-c2oc3ccccc3c(=S)c2-c2ccc(F)cc2)cc1 | 203 to 205 |
| CC12CCC1(C)C(=O)OC2=O (stereo not given) | 84 to 86 |
| CNC(=O)[C@@H](C[C@H](O)[C@H](CC1CCCCC1)NC(=O)OC(C)(C)C)C1(O)CCCCC1 | 175 to 177 |
| O=C(NO)c1ccc2c(c1)CN(C(=O)c1ccc3ccccc3n1)C2 | 162 to 166 |
| CCc1cc2c(cc1Sc1ccc(C(=O)O)cc1)C(C)(C)CCC2(C)C | 82 to 83 |
| CC(C#CC1=C(C)C(=O)C(O)CC1(C)C)=CCO (stereo not given) | 84 to 86 |
| OCc1cccc2nnsc12 | 79 to 81 |
| CCCCCCCCCCCCCCOc1ccc(C(=O)O)cc1OCCCCCCCCCCCCCC | 112 to 113 |
| OC(c1ccccc1)(c1ccc(F)cc1)c1ncc[nH]1 (stereo not given) | 199 to 200 |
| O=c1c2ccccc2n(CCCCl)c2ccc(Cl)cc12 | 141 |
| COc1cccc2c1cc(C=O)n2Cc1ccccc1 | 130 to 131 |
| CS(=O)(=O)c1ccc(-c2sc(-c3ccccc3Cl)nc2-c2ccccc2)cc1 | 192 to 195 |
